Laboratory results reported in patent publication US8906868B2, “Aminoglycoside derivatives” (Rempex Pharmaceuticals, Inc., priority 2010, dated 2014).
Converted amounts (≈) assume the structure as drawn. Like-named read-outs stand apart in the source and are kept apart here.

What was measured:
[1] = system: EC1001 acc(6′)-Ib; assay: microbe, parasite or virus in culture; type: cell-based, Escherichia coli; details: Escherichia coli
Summary of the method: (§1)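 CLSI broth microdilution used 2-fold serial dilutions in cation-adjusted Mueller Hinton broth with an inoculum of 5×10^5 CFU/ml. Plates were incubated 18 hours at 35° C. MIC was read by turbidity at 600 nm and confirmed visually.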

[2] = system: ECM6007 aac(6′) + aph(2″); assay: microbe, parasite or virus in culture; type: cell-based, Escherichia coli; details: Escherichia coli
Summary of the method: as §1

[3] = system: ACM1005 ATCC 19004; assay: MIC, broth microdilution; type: cell-based, Acinetobacter baumannii; details: Acinetobacter baumannii, ATCC19004
Summary of the method: as §1

[4] = system: Citrobacter freundii CFM1000 ATCC 8090; assay: MIC, representative strains; type: cell-based; details: ATCC8090, read-out: MIC Citrobacter freundii CFM1000 ATCC 8090
Method: (§2) To compare microbiological activity of the test compounds, minimum inhibitory concentrations (MIC.s) were determined. Antibiotic MICs were obtained using the broth microdilution method according to Clinical and Laboratory Standards Institute (CLSI) approved guidelines (Methods for dilution antimicrobial susceptibility tests for bacteria that grow aerobically; approved standard—7th ed. CLSI document M7-A7. Clinical and Laboratory Standards Institute, Wayne, Pa., incorporated herein by reference in its entirety). Antibiotics were dissolved as specified by CLSI (Performance standards for antimicrobial susceptibility testing; Seventeenth informational supplement. CLSI document M100-S17. Clinical and Laboratory Standards Institute, Wayne, Pa., incorporated herein by reference in its entirety), and were serially diluted 2-fold in cation adjusted Mueller Hinton Broth (CaMHB) at 2× concentration. Bacterial inoculums were prepared in CaMHB by suspension of a colony from an agar plate that was prepared the previous day to obtain a final concentration of 5×10^5CFU/ml. The plates were incubated for 18 hours at 35° C. […] MIC.s were determined by reading the turbidity of plate wells using a SpectraMax Plus384 plate reader (Molecular Devices, Sunnyvale, Calif., USA) at 600 nm and were confirmed by visual inspection.

[5] = system: Enterobacter aerogenes EAM1000 ATCC 13048; assay: MIC, representative strains; type: cell-based; details: Klebsiella aerogenes, ATCC13048, read-out: MIC Enterobacter aerogenes EAM1000 ATCC 13048
Method: as §2

[6] = system: Pseudomonas aeruginosa PAM2859 multiple pumps deleted; assay: MIC, representative strains; type: cell-based; details: read-out: MIC Pseudomonas aeruginosa PAM2859 multiple pumps deleted
Method: as §2

[7] = system: Pseudomonas aeruginosa PAM2900 PAM2859/pXY; assay: MIC, representative strains; type: cell-based; details: read-out: MIC Pseudomonas aeruginosa PAM2900 PAM2859/pXY
Method: as §2

[8] = system: Staphylococcus aureus SAM1001 ATCC 25923; assay: MIC, representative strains; type: cell-based; details: ATCC25923, read-out: MIC Staphylococcus aureus SAM1001 ATCC 25923
Method: as §2

[9] = system: Acinetobacter baumannii ACM1008 aac(3)-Ia; assay: MIC, strains expressing aminoglycoside modifying enzymes; type: cell-based; details: read-out: MIC Acinetobacter baumannii ACM1008 aac(3)-Ia
Method: as §2

[10] = system: Acinetobacter spp. AB1051 aph(3′)VI; assay: as above; type: cell-based; details: read-out: MIC Acinetobacter spp. AB1051 aph(3′)VI
Method: as §2

[11] = system: Escherichia coli EC1003 aac(3)I; assay: as above; type: cell-based; details: read-out: MIC Escherichia coli EC1003 aac(3)I
Method: as §2

[12] = system: Escherichia coli ECM6004 aac(2′); assay: as above; type: cell-based; details: read-out: MIC Escherichia coli ECM6004 aac(2′)
Method: as §2

[13] = system: Escherichia coli ECM6005 aac(3)-II, aph(3′)-II; assay: as above; type: cell-based; details: read-out: MIC Escherichia coli ECM6005 aac(3)-II, aph(3′)-II
Method: as §2

[14] = system: Escherichia coli ECM6008 aac(3)-I, ant(3″); assay: as above; type: cell-based; details: read-out: MIC Escherichia coli ECM6008 aac(3)-I, ant(3″)
Method: as §2

[15] = system: Escherichia coli ECM6012 armA; assay: as above; type: cell-based; details: ECM6012ARMA, read-out: MIC Escherichia coli ECM6012 armA
Method: as §2

[16] = system: Providencia stuartii PSM1000 aac(2′); assay: as above; type: cell-based; details: read-out: MIC Providencia stuartii PSM1000 aac(2′)
Method: as §2

[17] = system: Pseudomonas aeruginosa pa1060 ant(2″); assay: as above; type: cell-based; details: read-out: MIC Pseudomonas aeruginosa pa1060 ant(2″)
Method: as §2

[18] = system: Pseudomonas aeruginosa pa1062 aac(3)-I; assay: as above; type: cell-based; details: read-out: MIC Pseudomonas aeruginosa pa1062 aac(3)-I
Method: as §2

[19] = system: 143 clinical isolates of various species of Enterobacteriacea; assay: MIC against clinical isolates of Enterobacteriacea; type: cell-based; details: for MIC50: MIC of 50% population; for MIC50 / MIC90: 143 clinical isolates of Enterobacteriacea; for MIC90: MIC of 90% population; for share of strains of Enterobacteriacae in which the compound was more potent than the other (44 vs. 45): by ratio of MICs
Method: as §2
Table 9 summarizes results of testing 44 and 45 against 143 clinical isolates of various species of Enterobacteriacea.

[20] = system: Escherichia coli (ATCC 25922); assay: MIC, broth microdilution; details: Escherichia coli
[21] = system: Staphylococcus aureus (ATCC 29213); assay: MIC, broth microdilution; details: Staphylococcus aureus
[22] = system: Acinetobacter baumannii (ATCC 19606); assay: MIC, broth microdilution; details: Acinetobacter baumannii
[23] = Table 4, read-out: Compound MIC on Bacterial Strains: Escherichia coli EC1001 acc(6′)-Ib
[24] = Table 8, read-out: MIC Escherichia coli EC1001 aac(6′)-Ib
[25] = 18 h, Table 4, read-out: Compound MIC on Bacterial Strains: Escherichia coli ECM6007 aac(6′) + aph(2″)
[26] = Table 8, read-out: MIC Escherichia coli ECM6007 aac(6′) + aph(2″)
[27] = Table 4, read-out: Compound MIC on Bacterial Strains: Acinetobacter baumannii ACM1005 ATCC 19004
[28] = Table 7, read-out: MIC Acinetobacter baumannii ACM1005 ATCC 19004
[29] = ATCC25922, read-out: Compound MIC on Bacterial Strains: E. coli ATCC 25922
[30] = ATCC25922, read-out: Compound MIC on Bacterial Strains: ECM6000 ATCC 25922
[31] = ATCC25922, read-out: Compound MIC on Bacterial Strains: Escherichia coli ECM6000 ATCC 25922
[32] = ATCC25922, read-out: MIC Escherichia coli ECM6025 ATCC 25922
[33] = ATCC29213, read-out: Compound MIC on Bacterial Strains: S. aureus ATCC 29213, QC strain, Table 2
[34] = ATCC29213, read-out: Compound MIC on Bacterial Strains: Staphylococcus aureus SAM1000 ATCC 29213, Table 5
[35] = ATCC29213, read-out: MIC Staphylococcus aureus SAM1000 ATCC 29213, Table 7
[36] = ATCC19606, read-out: Compound MIC on Bacterial Strains: A. baumannii ATCC 19606
[37] = ATCC19606, read-out: MIC Acinetobacter baumannii ACM1003 ATCC 19606

| Compound | MIC [1, 23] | MIC [1, 24] | MIC [2, 25] | MIC [2, 26] | MIC [3, 27] | MIC [3, 28] | MIC [4] | MIC [5] | MIC [6] | MIC [7] | MIC [8] | MIC [9] | MIC [10] | MIC [11] | MIC [12] | MIC [13] | MIC [14] | MIC [15] | MIC [16] | MIC [17] | further results |
| --- | --- | --- | --- | --- | --- | --- | --- | --- | --- | --- | --- | --- | --- | --- | --- | --- | --- | --- | --- | --- | --- |
| CN[C@@H]1C(O)[C@@H](OC2C(O)C(O[C@H]3O[C@H](CNC[C@@H](O)CO)CCC3N)[C@@H](N)C[C@H]2NC(=O)[C@@H](O)CN)OCC1(C)O (stereo partly drawn) [Compound 44] | < 1 µg/mL | < 1 µg/mL | < 1 µg/mL | < 1 µg/mL | 1 to 8 µg/mL (≈ 1.64 to 13.1 µM) | 1 to 8 µg/mL (≈ 1.64 to 13.1 µM) | < 1 µg/mL | < 1 µg/mL | < 1 µg/mL | > 8 µg/mL | < 1 µg/mL | 1 to 8 µg/mL (≈ 1.64 to 13.1 µM) | 1 to 8 µg/mL (≈ 1.64 to 13.1 µM) | < 1 µg/mL | < 1 µg/mL | < 1 µg/mL | < 1 µg/mL | > 8 µg/mL | > 8 µg/mL | < 1 µg/mL | MIC [18]: > 8 µg/mL; MIC50 [19]: 0.5 µg/mL; MIC90 [19]: 2 µg/mL; share of strains of Enterobacteriacae in which the compound was more potent than the other (44 vs. 45) [19]: ~75%; MIC [20, 29]: < 1 µg/mL; MIC [20, 30]: < 1 µg/mL; MIC [20, 31]: < 1 µg/mL; MIC [20, 32]: < 1 µg/mL; MIC [21, 33]: < 1 µg/mL; MIC [21, 34]: < 1 µg/mL; MIC [21, 35]: < 1 µg/mL; MIC [22, 36]: > 8 µg/mL; MIC [22, 37]: > 8 µg/mL |
| CN[C@@H]1[C@@H](O)[C@@H](O[C@@H]2[C@@H](O)[C@H](O[C@H]3O[C@H](CNC[C@H](O)CO)CC[C@H]3N)[C@@H](N)C[C@H]2NC(=O)[C@@H](O)CN)OC[C@]1(C)O [Compound 45, (S)-3-amino-N-((1R,2S,3S,4R,5S)-5-amino-4-((2R,3R,6S)-3-amino-6-(((S)-2,3-dihydroxypropylamino)methyl)tetrahydro-2H-pyran-2-yloxy)-2-((2R,3R,4R,5R)-3,5-dihydroxy-5-methyl-4-(methylamino)tetrahydro-2H-pyran-2-yloxy)-3-hydroxycyclohexyl)-2-hydroxypropanamide] | 1 to 8 µg/mL (≈ 1.64 to 13.1 µM) | 1 to 8 µg/mL (≈ 1.64 to 13.1 µM) | < 1 µg/mL | < 1 µg/mL | 1 to 8 µg/mL (≈ 1.64 to 13.1 µM) | 1 to 8 µg/mL (≈ 1.64 to 13.1 µM) | < 1 µg/mL | 1 to 8 µg/mL (≈ 1.64 to 13.1 µM) | < 1 µg/mL | > 8 µg/mL | < 1 µg/mL | 1 to 8 µg/mL (≈ 1.64 to 13.1 µM) | 1 to 8 µg/mL (≈ 1.64 to 13.1 µM) | < 1 µg/mL | < 1 µg/mL | < 1 µg/mL | 1 to 8 µg/mL (≈ 1.64 to 13.1 µM) | > 8 µg/mL | > 8 µg/mL | 1 to 8 µg/mL (≈ 1.64 to 13.1 µM) | MIC [18]: > 8 µg/mL; MIC50 [19]: 1 µg/mL; MIC90 [19]: 2 µg/mL; share of strains of Enterobacteriacae in which the compound was more potent than the other (44 vs. 45) [19]: less than 2%; MIC [20, 29]: < 1 µg/mL; MIC [20, 30]: < 1 µg/mL; MIC [20, 31]: < 1 µg/mL; MIC [20, 32]: < 1 µg/mL; MIC [21, 33]: 1 to 8 µg/mL (≈ 1.64 to 13.1 µM); MIC [21, 34]: 1 to 8 µg/mL (≈ 1.64 to 13.1 µM); MIC [21, 35]: 1 to 8 µg/mL (≈ 1.64 to 13.1 µM); MIC [22, 36]: > 8 µg/mL; MIC [22, 37]: > 8 µg/mL |
